In US10604487B2, “Pyridinol derivative or pharmaceutically acceptable salt thereof, and pharmaceutical composition containing same as active ingredient” (Research Cooperation Foundation of Yeungnam University, priority 2016, dated 2020):

How the values were obtained:
TNBS-induced colitis = assay: In vivo efficacy of oral administration in TNBS-induced inflammatory bowel disease model; set-up: species or system Sprague Dawley rats; settings: rat, oral, 1 mg/kg, 5 days
Protocol: 7 to 8-week-old Sprague Dawley rats were purchased from Orient Bio Korea, and after stabilization with typical solid feed for 3 days, were used as animals for the experiment. The animals were freely supplied with feed and water during the experiment, and a cage was maintained at a temperature of 25±1° C. and a relative humidity of 50±10%. Lighting was adjusted to a 12-hour light-dark cycle using an automatic lightening system. In regard to experimental groups, there were 5 groups each consisting of 6 rats having an average weight of 180±10 g (a control group, a group administered TNBS only, a group administered TNBS+300 mg/kg of sulfasalazine, a group administered TNBS+10 mg/kg of GLPG, and a group administered TNBS+1 mg/kg of test drug), which were divided according to a randomized block design.
After rats that had been fasting for 24 hours were anesthetized with diethyl ether, a 1 mL syringe connected with a polyethylene catheter was used to slowly inject 0.8 mL of 5% TNBS diluted with 50v/v % ethanol into the lumen of a colon, and then the rats turned upside down and kept upright for 60 seconds to prevent the leakage of 5% TNBS from the anus. In the control group, only a vehicle [50 v/v % ethanol] was injected in the same manner as in the other groups (Thapa et al., 2008).
To examine a drug effect, for 5 days from the day following the TNBS treatment, a drug was administered at a predetermined time every day.
A change in the body weights of the rats was observed using a digital mass meter from the fasting stage to the end of the TNBS administration and drug administration processes.
The colon of each rat was extracted and tissue 5 to 6 cm from the anus was cut into 1-cm pieces, and then the weight of the tissue was measured.

[1] = tested on: TNF-α-induced adhesion of monocytes to intestinal epithelial cells; assay: Inhibitory activity against TNF-α-induced adhesion of monocytes (U937) to intestinal epithelial cells (HT-29); type: cell-based, human; settings: Homo sapiens, 1 μM test drug; HT-29/U937 adhesion, 10 ng/mL TNF-α; read-out: Inhibitory activity (%)
Outline: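 HT-29 monolayers pretreated 1 h with compound in 1% FBS medium, then exposed 3 h at 37 °C to BCECF-loaded U937 cells plus 10 ng/mL TNF-α. Non-adherent cells washed off; bound cells quantified by fluorescence after Triton X-100 lysis.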

[2] = Cytotoxicity test (MTT), U937; type: cell-based; settings: human, U937, 48 h
Outline: (§1)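 Cells seeded at 1×10⁵ cells/cm² and exposed to graded compound concentrations for 48 h at 37 °C in RPMI 1640 with 1% FBS. MTT (5 mg/mL) added for 4 h; formazan dissolved in DMSO and absorbance read at 540 nm.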

[3] = Cytotoxicity test (MTT), HT-29; type: cell-based; settings: human, HT-29, 48 h
Outline: as §1

With `Cc1nc(NC(=S)NC(C)C)c(C)c(C)c1O` [Compound 18-2, 1-(5-hydroxy-3,4,6-trimethylpyridin-2-yl)-3-isopropylthiourea] the “Body weight recovery rate (%)” value (TNBS-induced colitis) was 72.0%, the “Bowel weight recovery rate (%)” value (TNBS-induced colitis) was 81.6% and the inhibition at 1 µM [1] was no less than 50%. For the same molecule, the viability at 48 h, 0.01 µM ([2]; U937 cells (monocytic blood cancer-derived cell line), 0.01 μM, read-out: Cell viability (% of control)) was 97 ± 3.5%, the viability at 48 h, 0.1 µM ([2]; U937 cells (monocytic blood cancer-derived cell line), 0.1 μM, read-out: Cell viability (% of control)) was 99.4 ± 3.9% and the viability at 48 h, 1 µM ([2]; U937 cells (monocytic blood cancer-derived cell line), 1 μM, read-out: Cell viability (% of control)) was 99.1 ± 1.4%. For the same molecule, the viability at 48 h, 10 µM ([2]; U937 cells (monocytic blood cancer-derived cell line), 10 μM, read-out: Cell viability (% of control)) was 90.8 ± 2.2%, the viability at 48 h, 100 µM ([2]; U937 cells (monocytic blood cancer-derived cell line), 100 μM, read-out: Cell viability (% of control)) was 63.6 ± 0.8% and the IC50 at 48 h ([2]; U937 cells) was greater than 100 µM. The viability at 48 h, 0.01 µM ([3]; HT-29 cells (colorectal cancer cell line), 0.01 μM, read-out: Cell viability (% of control)) was 87.6 ± 4.8%, the viability at 48 h, 0.1 µM ([3]; HT-29 cells (colorectal cancer cell line), 0.1 μM, read-out: Cell viability (% of control)) was 87.3 ± 2.1% and the viability at 48 h, 1 µM ([3]; HT-29 cells (colorectal cancer cell line), 1 μM, read-out: Cell viability (% of control)) was 88.4 ± 4.2%. The viability at 48 h, 10 µM ([3]; HT-29 cells (colorectal cancer cell line), 10 μM, read-out: Cell viability (% of control)) was 87.6 ± 5.3%, the viability at 48 h, 100 µM ([3]; HT-29 cells (colorectal cancer cell line), 100 μM, read-out: Cell viability (% of control)) was 88.6 ± 1.3% and the IC50 at 48 h ([3]; HT-29 cells, read-out: IC50 (μM), cytotoxicity) was greater than 100 µM.
